Activity calls are given as the source filed them. No rule for the calls is given here.
Molecular target: N-formyl peptide receptor 2 (Homo sapiens) (UniProt P25090)
Assay: concentration-dependent FPRL1 ligand displacement – cell-based, FPR counter-screen, fluorescent ligand, dose response (AID 520)
Conditions: FPRL1-expressing cells, fluorescent ligand binding inhibition; for Ki: measured here: FPRL1 binding Ki

Sequence of N-formyl peptide receptor 2 (Homo sapiens) (P25090 whole entry, looked up): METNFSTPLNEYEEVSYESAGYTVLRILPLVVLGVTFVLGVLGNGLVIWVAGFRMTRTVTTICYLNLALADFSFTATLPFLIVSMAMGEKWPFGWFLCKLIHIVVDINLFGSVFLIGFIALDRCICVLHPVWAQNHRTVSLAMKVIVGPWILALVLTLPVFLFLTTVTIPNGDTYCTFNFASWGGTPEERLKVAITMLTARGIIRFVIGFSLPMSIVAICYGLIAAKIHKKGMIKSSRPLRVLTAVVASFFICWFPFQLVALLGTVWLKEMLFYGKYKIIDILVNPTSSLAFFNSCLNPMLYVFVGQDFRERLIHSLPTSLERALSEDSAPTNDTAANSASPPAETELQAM

| IC50 | Ki [µM] | SMILES |
| --- | --- | --- |
| > 66.7 µM (inactive) | > 40.3 | COc1ccc(C2C(C(=O)c3cccs3)=C(O)C(=O)N2c2nnc(C)s2)cc1OC (centres undefined) |
|  | > 40.3 | COc1ccc2ccccc2c1C1CC(=O)N2CN(C3CCCCC3)CSC2=C1C#N (centres undefined) |
|  | > 40.3 | CCOC(=O)c1cc(NC(=O)C2C3CCC(O3)C2C(=O)O)cc(C(=O)OCC)c1 (centres undefined) |
| > 66.7 µM (inactive) | > 40.3 | CCOc1ccc(/C(O)=C2/C(=O)C(=O)N(CC3CCCO3)C2c2ccco2)cc1 (centres undefined) |
|  | > 40.3 | O=C(c1ccc(Cl)cc1)N(Cc1cccs1)C1CCS(=O)(=O)C1 (centres undefined) |
|  | > 40.3 | O=C(NCC1CCCO1)c1ccc(NC(=O)C2CCCCC2C(=O)O)cc1 (centres undefined) |
|  | > 40.3 | O=C(O)C1CC=CCC1C(=O)N1CCN(c2nc(-c3ccccc3)c3ccccc3n2)CC1 (centres undefined) |
| > 66.7 µM (inactive) | > 40.3 | CCCOc1ccc(C2C(C(=O)c3ccco3)=C(O)C(=O)N2CCCn2ccnc2)cc1 (centres undefined) |
|  | > 40.3 | Cc1cc2oc(C(=O)NC3CCS(=O)(=O)C3)c(C)c2cc1C (centres undefined) |
| > 66.7 µM (inactive) | > 40.3 | Cc1ccc(C(=O)C2=C(O)C(=O)N(Cc3ccccc3)C2c2cccnc2)o1 (centres undefined) |
|  | > 40.3 | N[C@@H](Cc1ccc(O)c(I)c1)C(=O)O |
| > 66.7 µM (inactive) | > 40.3 | COc1ccccc1C1/C(=C(/O)c2ccccc2)C(=O)C(=O)N1CCO (centres undefined) |
|  | > 40.3 | Cc1cccc(Nc2ccccc2C(=O)NCc2ccco2)c1C |
|  | > 40.3 | CC1(C)S[C@@H]2[C@H](NC(=O)C(C(=O)O)c3ccccc3)C(=O)N2[C@H]1C(=O)O (some centres undefined) |
|  | > 40.3 | O=c1cc(-c2ccccc2)nc(N2CCN(Cc3ccccc3)CC2)[nH]1 |
| > 66.7 µM (inactive) | > 40.3 | COc1ccc(CCN2C(=O)C(O)=C(C(=O)c3ccco3)C2c2cccs2)cc1OC (centres undefined) |
|  | > 40.3 | O=S(=O)(c1cnc[nH]1)N1CCc2ccccc21 |
|  | > 40.3 | O=C(NC1CCCC1)c1sc(=S)n2c1[nH]c(=O)c1ccccc12 |
| > 66.7 µM (inactive) | > 40.3 | Cc1nc2c(C)cccn2c1/C(O)=C1\C(=O)C(=O)N(CCN2CCOCC2)C1c1cccs1 (centres undefined) |
|  | > 40.3 | C=CCn1c(NC(=O)c2ccccc2)c(C#N)c2nc3ccccc3nc21 |
| > 66.7 µM (inactive) | > 40.3 | COC(=O)c1ccc(C2/C(=C(/O)c3ccc(OC)cc3)C(=O)C(=O)N2Cc2ccco2)cc1 (centres undefined) |
| > 66.7 µM (inactive) | > 40.3 | CCOc1cccc(/C(O)=C2/C(=O)C(=O)N(CCOC)C2c2ccc(C)o2)c1 (centres undefined) |
| > 66.7 µM (inactive) | > 40.3 | CCCCC1C(=O)N(c2ccccc2)N(c2ccccc2)C1=O |

| IC50 | Ki [µM] | SMILES |
| --- | --- | --- |
|  | > 40.3 | COc1ccc(-c2cc(C(F)(F)F)nc(NC3CCCC3)n2)cc1OC |
| > 66.7 µM (inactive) | > 40.3 | Cc1ccc(C2C3=C(CC(C)(C)CC3=O)Nc3[nH]c(=S)[nH]c(=O)c32)cc1 (centres undefined) |
| > 66.7 µM (inactive) | > 40.3 | COc1ccc(C2C(C(=O)c3ccco3)=C(O)C(=O)N2CCc2ccccc2)cc1OC (centres undefined) |
|  | > 40.3 | Cc1ccc(C)c(-n2c(CNC(=O)c3ccco3)nnc2SCC(=O)N2CCc3ccccc32)c1 |
|  | > 40.3 | CCc1nnc(NC(=O)CSc2nnc(-c3cc4ccccc4cc3O)n2CC)s1 |
|  | > 40.3 | CCC(CCC(=O)Nc1cccc(C(=O)O)c1)C(=O)O (centres undefined) |
|  | > 40.3 | CCC(=O)Nc1c(C#N)c2nc3ccccc3nc2n1-c1ccccc1C |
|  | > 40.3 | Cc1oc2cc(O)cc(O)c2c(=O)c1-c1ccc2c(c1)OCCCO2 |
|  | > 40.3 | COC(=O)COc1ccc2c(=O)c(Oc3ccccc3)c(C)oc2c1 |
|  | > 40.3 | COc1ccc2c(=O)c(-c3cnn(-c4ccccc4)c3)c(C)oc2c1 |
|  | > 40.3 | CC1(C)S[C@@H]2[C@H](NC(=O)Cc3ccccc3)C(=O)N2[C@H]1C(=O)O |
| > 66.7 µM (inactive) | > 40.3 | O=C(C1=C(O)C(=O)N(CCN2CCOCC2)C1c1ccccc1)c1cccs1 (centres undefined) |
| > 66.7 µM (inactive) | > 40.3 | Cc1ccc(C2/C(=C(/O)c3ccc(Cl)cc3)C(=O)C(=O)N2CC2CCCO2)o1 (centres undefined) |
| > 66.7 µM (inactive) | > 40.3 | COc1ccc(/C(O)=C2\C(=O)C(=O)N(Cc3ccco3)C2c2ccc(OC)cc2OC)cc1 (centres undefined) |
| > 66.7 µM (inactive) | > 40.3 | COC(=O)c1[nH]c(C)c(/C(O)=C2\C(=O)C(=O)N(CCCN3CCOCC3)C2c2ccccn2)c1C (centres undefined) |
| > 66.7 µM (inactive) | > 40.3 | C=CCN1C(=O)C2(/C(=C(\O)c3ccc4c(c3)OCCO4)C(=O)C(=O)N2CCCOC)c2ccccc21 (centres undefined) |
|  | > 40.3 | COc1ccc(S(=O)(=O)NC(C)C(=O)Nc2cccc(C(C)=O)c2)cc1 (centres undefined) |
|  | > 40.3 | COc1ccccc1NC(=O)CSc1nnc(Cn2nnc(-c3ccccc3)n2)n1-c1ccccc1 |
| > 66.7 µM (inactive) | > 40.3 | COc1cc(C2C(C(=O)c3cccs3)=C(O)C(=O)N2Cc2ccco2)cc(OC)c1OC (centres undefined) |
|  | > 40.3 | COC(=O)C1=[N+]([O-])OC(C(=O)OC)C1c1c[nH]c2ccccc12 (centres undefined) |
|  | 7.3 | COc1ccc(-c2cc(C(F)(F)F)nc(N3CCN(Cc4ccccc4)CC3)n2)cc1OC |
| > 66.7 µM (inactive) | > 40.3 | O=C(C1=C(O)C(=O)N(c2ncccn2)C1c1cccc(Cl)c1)c1ccco1 (centres undefined) |
